Laboratory results reported in patent US8507409B2, “Synergistic combination of a glyphosate compound and DMITS” (Dow Global Technologies LLC, priority 2010, dated 2013).

Key:
Type in all cases: cell-based
[1] = tested on: Chlorella sp., Chlorella kessleri, and Nostoc commune; assay: Algal efficacy, dry paint film (Modified ASTM 5589), Cs + Ck + Nc pool; conditions: Ch-No; for Total conc in pppm: minimum inhibitory concentration chosen for SI calculation, total actives in paint
Protocol: (§1) Each sample was tested in duplicate.
(§2) In this synergy study, three pool of mixed algae were prepared as the test inoculum, Gloeocapsa sp. and Oscillatoria sp. a mix of cyanobacteria grown on BG-11 media; Chlorella sp., Chlorella kessleri, and Nostoc commune are unicellular chlorphytes that were mixed and grown on Bold media; Trentepohlia aurea, Tretepohlia odorata, and Calotrix parientina are filamentous algae that were mixed and grown on Bold media.
(§3) The plates were incubated at room temp (25° C.-26° C.) with cyclic exposure to light (OTT-Lite model # OTL4012P, 40 Watt, 26KLumen) and dark phases, for a period of four weeks. The total area covered was evaluated at the end of each week according to percent area covered in 5% increments.
(§4) The SI is calculated based on F. C.
(§5) SI value of <1 in the formula indicates a synergism of the blended biocides exists.
(§6) NE=no end point at the concentration tested that will meet the percent inhibition criteria set in each SI calculation.

[2] = tested on: Trentepohlia aurea, Tretepohlia odorata, and Calotrix parientina; assay: Algal efficacy, dry paint film (Modified ASTM 5589), Cp + To + Ta pool; conditions: Cal-Tre; for Total conc in pppm: minimum inhibitory concentration chosen for SI calculation, NE=no end point
Protocol: as §1, §2, §3, §4, §5, §6

[3] = tested on: Gloeocapsa sp. and Oscillatoria sp.; assay: Algal efficacy, dry paint film (Modified ASTM 5589), Gs + Os pool; conditions: Os-Gl; for Total conc in pppm: minimum inhibitory concentration chosen for SI calculation, total actives in paint
Protocol: as §1, §2, §3, §4, §5, §6

[4] = tested on: Aspergillus niger mixed with Penicillium funiculosum; assay: Fungal efficacy, dry paint film (Modified ASTM 5590), An + Pf pool; conditions: for Total conc in pppm: minimum inhibitory concentration chosen for SI calculation, total actives in paint
Protocol: as §1, §4, §5, §6

[5] = at the total conc listed for the same ratio

With `Cc1ccc(S(=O)(=O)C(I)I)cc1` [DMITS, diiodomethyl-p-tolylsulfone] the “% Inhibition” value [1, 5] was 80%, the “Total conc in pppm” value [1] was 2475 pppm and the “% Inhibition” value [2, 5] was 20%. For the same compound, the “Total conc in pppm” value [2] was 3300 pppm, the “% Inhibition” value [3, 5] was 20% and the “Total conc in pppm” value [3] was 3300 pppm. The “% Inhibition” value [4, 5] was 80% and the “Total conc in pppm” value [4] was 825 pppm.

In the case of zinc glyphosate, the “Total conc in pppm” value [1] is reported as 412.5 pppm, the “Total conc in pppm” value [2] is reported as 412.5 pppm and the “Total conc in pppm” value [3] is reported as 412.5 pppm. The “Total conc in pppm” value [4] was 412.5 pppm.
